Results reported in patent publication EP0313984A1, “Substituted azolyl methyl carbinols and pharmaceutical compositions containing them” (BAYER AG, priority 1987, dated 1989).
≈ marks a conversion by molar mass, not a printed value. Each block holds one compound with its values, some of them ahead of it.

Experiments:
Torulopsis glabrata = experiment: Antimycotic in-vitro activity, serial dilution test (MIC); format: cell-based; details: Nakaseomyces glabratus, inoculum 5 x 10³ to 10⁴ Keime/ml, Fleischextrakt-Traubenzucker-Bouillon, 28 °C to 37 °C, 24 to 96 h, read-out: MHK-Werte Torulopsis glabrata
Protocol: (§1) Die in-vitro-Prüfungen wurden im Reihenverdünnungstest mit Keiminokula von durchschnittlich 5 x 10³ bis 10⁴ Keimen/ml Substrat durchgeführt. Als Nährmedium dienten • a) für Dermatophyten und Schimmelpilze: Sabouraud's milieu d'epreuve • b) für Hefen: Fleischextrakt-Traubenzucker-Bouillon.
(§2) Die Bebrütungstemperatur betrug 28 °C bis 37 °C, die Bebrütungsdauer lag bei 24 bis 96 Stunden bei Hefen und 96 Stunden bei Dermatophyten und Schimmelpilzen.

Candida albicans = experiment: as above; format: cell-based; details: inoculum 5 x 10³ to 10⁴ Keime/ml, Fleischextrakt-Traubenzucker-Bouillon, 28 °C to 37 °C, 24 to 96 h, read-out: MHK-Werte Candida albicans
Protocol: as §1, §2

Aspergillus fumigatus = experiment: as above; format: cell-based; details: inoculum 5 x 10³ to 10⁴ Keime/ml, Sabouraud's milieu d'epreuve, 28 °C to 37 °C, 96 h, read-out: MHK-Werte Aspergillus fumigatus
Protocol: as §1, §2

Trichophyton mentagr. = experiment: as above; format: cell-based, Trichophyton mentagrophytes; details: inoculum 5 x 10³ to 10⁴ Keime/ml, Sabouraud's milieu d'epreuve, 28 °C to 37 °C, 96 h, read-out: MHK-Werte Trichophyton mentagr.
Protocol: as §1, §2

Candida = experiment: Antimycotic in-vivo activity (oral) in mouse candidosis; parameters: species or system Mäuse vom Typ SPF-CF₁
Protocol: Mäuse vom Typ SPF-CF₁ werden intravenös mit 1 - 2 x 10⁶ logarithmisch wachsenden Candida-Zellen, die in physiologischer Kochsalzlösung suspendiert werden, infiziert. Eine Stunde vor und sieben Stunden nach der Infektion werden die Tiere mit jeweils 25 - 100 mg/kg Körpergewicht der Präparate oral behandelt.
Unbehandelte Tiere sterben 3 bis 6 Tage post infektionem. Die Überlebensrate am 6.Tag post infektionem beträgt bei unbehandelten Kontrolltieren etwa 5 %.

[1] = system: Dermatophyten, Schimmelpilze, Hefen; experiment: Antimycotic in-vitro activity, serial dilution test (overall comparison); format: cell-based; details: compared in words with known compounds (A) and (B)
Protocol: as §1, §2

Microsporum canis = experiment: Antimycotic in-vitro activity, serial dilution test (MIC); format: cell-based; details: inoculum 5 x 10³ to 10⁴ Keime/ml, Sabouraud's milieu d'epreuve, 28 °C to 37 °C, 96 h, read-out: MHK-Werte Microsporum canis
Protocol: as §1, §2

[2] = mouse candidosis, oral, compared in words with known compounds (A) and (B)

- MIC (Torulopsis glabrata): > 64 µg/mL
- MIC (Candida albicans): 64 µg/mL (≈ 237 µM)
- MIC (Aspergillus fumigatus): > 64 µg/mL
- MIC (Trichophyton mentagr.): 64 µg/mL (≈ 237 µM)
Structure (SMILES): OC(Cn1cncn1)(Cn1cncn1)c1ccccc1 [(A), 2-Phenyl-1,3-bis-(1,2,4-triazol-1-yl)-propan-2-ol, reference compound]

- MIC (Torulopsis glabrata): > 64 µg/mL
- MIC (Candida albicans): > 64 µg/mL
- MIC (Aspergillus fumigatus): > 64 µg/mL
- MIC (Trichophyton mentagr.): > 64 µg/mL
Structure (SMILES): CC(C)(n1cncn1)C(O)(Cn1ccnc1)c1ccc(F)cc1 (stereo not drawn) [(B), 2-(4-Fluorphenyl)-3-methyl-1-imidazol-1-yl-3-(1,2,4-triazol-1-yl)-butan-2-ol, reference compound]
- Wirkung (Candida; mice infected i.v. with 1 - 2 x 10⁶ Candida cells, 25 - 100 mg/kg oral 1 h before and 7 h after infection, survival at day 6 p.i., class symbols, key not readable): k.w.

- MIC (Torulopsis glabrata): > 64 µg/mL
- MIC (Candida albicans): 15 µg/mL (≈ 49.3 µM)
- MIC (Aspergillus fumigatus): 32 µg/mL (≈ 105 µM)
- MIC (Trichophyton mentagr.): 4 µg/mL (≈ 13.1 µM)
Structure (SMILES): Cc1nc(C(O)(Cn2cncn2)c2ccc(F)cc2)cs1 (stereo not drawn) [Verbindung 1, 1-(4-Fluorphenyl)-1-(2-methylthiazol-4-yl)-2-(1,2,4-triazol-1-yl)-ethanol]
- antimykotische Wirksamkeit [1]: bessere antimykotische Wirksamkeit

- MIC (Torulopsis glabrata): 4 µg/mL (≈ 10.1 µM)
- MIC (Microsporum canis): 16 µg/mL (≈ 40.4 µM)
- MIC (Candida albicans): < 1 µg/mL
- MIC (Aspergillus fumigatus): 16 µg/mL (≈ 40.4 µM)
- MIC (Trichophyton mentagr.): < 1 µg/mL
Structure (SMILES): Cc1ccc(C(O)(Cn2ccnc2)c2csc(-c3ccc(Cl)cc3)n2)cc1 (stereo not drawn) [Verbindung 3]
- antimykotische Wirksamkeit [1]: bessere antimykotische Wirksamkeit

- MIC (Torulopsis glabrata): 2 µg/mL (≈ 5.05 µM)
- MIC (Microsporum canis): 8 µg/mL (≈ 20.2 µM)
- MIC (Candida albicans): 2 µg/mL (≈ 5.05 µM)
- MIC (Aspergillus fumigatus): 4 µg/mL (≈ 10.1 µM)
- MIC (Trichophyton mentagr.): < 1 µg/mL
Structure (SMILES): Cc1ccc(-c2nc(C(O)(Cn3ccnc3)c3ccc(Cl)cc3)cs2)cc1 (stereo not drawn) [Verbindung 14]
- antimykotische Wirksamkeit [1]: bessere antimykotische Wirksamkeit

- MIC (Torulopsis glabrata): 4 µg/mL (≈ 10.1 µM)
- MIC (Microsporum canis): 8 µg/mL (≈ 20.2 µM)
- MIC (Candida albicans): 4 µg/mL (≈ 10.1 µM)
- MIC (Aspergillus fumigatus): 4 µg/mL (≈ 10.1 µM)
- MIC (Trichophyton mentagr.): < 1 µg/mL
Structure (SMILES): Cc1ccc(-c2nc(C(O)(Cn3cncn3)c3ccc(Cl)cc3)cs2)cc1 (stereo not drawn) [Verbindung 15]
- antimykotische Wirksamkeit [1]: bessere antimykotische Wirksamkeit

- MIC (Torulopsis glabrata): 16 µg/mL (≈ 41.1 µM)
- MIC (Microsporum canis): 64 µg/mL (≈ 165 µM)
- MIC (Candida albicans): 8 µg/mL (≈ 20.6 µM)
- MIC (Aspergillus fumigatus): 32 µg/mL (≈ 82.3 µM)
- MIC (Trichophyton mentagr.): < 1 µg/mL
Structure (SMILES): OC(Cn1ccnc1)(c1ccc(Cl)cc1)c1csc(N2CCCCC2)n1 (stereo not drawn) [Verbindung 18]
- antimykotische Wirksamkeit [1]: bessere antimykotische Wirksamkeit

Structure (SMILES): OC(Cn1ccnc1)(c1ccc(Cl)cc1)c1csc(-c2ccc(Cl)cc2)n1 (stereo not drawn) [Verbindung 20]
- antimykotische Wirksamkeit [1]: bessere antimykotische Wirksamkeit

Structure (SMILES): OC(Cn1cncn1)(c1ccc(Cl)cc1)c1csc(-c2ccc(Cl)cc2)n1 (stereo not drawn) [Verbindung 21]
- Wirkung (Candida; [2]): bessere Wirkung
- antimykotische Wirksamkeit [1]: bessere antimykotische Wirksamkeit

Structure (SMILES): OC(Cn1ccnc1)(c1ccc(Cl)cc1)c1csc(-c2ccc(-n3ccnc3)c(Cl)c2)n1 (stereo not drawn) [Verbindung 22]
- Wirkung (Candida; [2]): bessere Wirkung
- antimykotische Wirksamkeit [1]: bessere antimykotische Wirksamkeit

Structure (SMILES): OC(Cn1cncn1)(c1ccc(Cl)cc1)c1csc(-c2ccc(-n3cncn3)c(Cl)c2)n1 (stereo not drawn) [Verbindung 23]
- Wirkung (Candida; [2]): bessere Wirkung
- antimykotische Wirksamkeit [1]: bessere antimykotische Wirksamkeit

Structure (SMILES): OC(Cn1ccnc1)(c1ccc(Cl)cc1)c1csc(COc2ccc(Cl)cc2Cl)n1 (stereo not drawn) [Verbindung 25]
- antimykotische Wirksamkeit [1]: bessere antimykotische Wirksamkeit

Structure (SMILES): OC(Cn1cncn1)(c1ccc(Cl)cc1)c1csc(COc2ccc(Cl)cc2Cl)n1 (stereo not drawn) [Verbindung 26]
- antimykotische Wirksamkeit [1]: bessere antimykotische Wirksamkeit

Structure (SMILES): OC(Cn1ccnc1)(c1ccc(F)cc1)c1csc(-c2ccccc2)n1 (stereo not drawn) [Verbindung 27]
- antimykotische Wirksamkeit [1]: bessere antimykotische Wirksamkeit

Structure (SMILES): OC(Cn1cncn1)(c1ccc(F)cc1)c1csc(-c2ccccc2)n1 (stereo not drawn) [Verbindung 28]
- antimykotische Wirksamkeit [1]: bessere antimykotische Wirksamkeit

Structure (SMILES): Cc1cccc(-c2nc(C(O)(Cn3cncn3)c3ccc(Cl)cc3)cs2)c1 (stereo not drawn) [Verbindung 36]
- antimykotische Wirksamkeit [1]: bessere antimykotische Wirksamkeit

Structure (SMILES): OC(Cn1ccnc1)(c1ccc(F)cc1)c1csc(-c2ccc(Cl)cc2)n1 (stereo not drawn) [Verbindung 39]
- antimykotische Wirksamkeit [1]: bessere antimykotische Wirksamkeit

Structure (SMILES): OC(Cn1cncn1)(c1ccc(F)cc1)c1csc(-c2ccc(Cl)cc2)n1 (stereo not drawn) [Verbindung 40]
- Wirkung (Candida; [2]): bessere Wirkung
- antimykotische Wirksamkeit [1]: bessere antimykotische Wirksamkeit

Structure (SMILES): OC(Cn1cncn1)(c1ccc(Cl)cc1)c1csc(-c2ccc(F)cc2)n1 (stereo not drawn) [Verbindung 41]
- Wirkung (Candida; [2]): bessere Wirkung
- antimykotische Wirksamkeit [1]: bessere antimykotische Wirksamkeit

Structure (SMILES): OC(Cn1cncn1)(c1ccc(Cl)cc1)c1csc(-c2ccc(-n3cncn3)cc2)n1 (stereo not drawn) [Verbindung 42]
- Wirkung (Candida; [2]): bessere Wirkung
- antimykotische Wirksamkeit [1]: bessere antimykotische Wirksamkeit

Structure (SMILES): CN(c1ccccc1)c1nc(C(O)(Cn2cncn2)c2ccc(Cl)cc2)cs1 (stereo not drawn) [Verbindung 43]
- antimykotische Wirksamkeit [1]: bessere antimykotische Wirksamkeit

Structure (SMILES): OC(Cn1cncn1)(c1ccc(F)cc1)c1csc(-c2ccc(F)cc2)n1 (stereo not drawn) [Verbindung 44]
- antimykotische Wirksamkeit [1]: bessere antimykotische Wirksamkeit

Structure (SMILES): OC(Cn1cncn1)(c1ccc(Cl)cc1)c1csc(Nc2ccccc2)n1 (stereo not drawn) [Verbindung 45]
- antimykotische Wirksamkeit [1]: bessere antimykotische Wirksamkeit

Structure (SMILES): OC(Cn1cncn1)(c1ccc(Cl)cc1)c1csc(-c2ccc(F)c(Cl)c2)n1 (stereo not drawn) [Verbindung 47]
- antimykotische Wirksamkeit [1]: bessere antimykotische Wirksamkeit

Structure (SMILES): CCN(CC)c1nc(C(O)(Cn2cncn2)c2ccc(Cl)cc2)cs1 (stereo not drawn) [Verbindung 49]
- antimykotische Wirksamkeit [1]: bessere antimykotische Wirksamkeit

Structure (SMILES): Cc1ccccc1-c1nc(C(O)(Cn2cncn2)c2ccc(Cl)cc2)cs1 (stereo not drawn) [Verbindung 52]
- antimykotische Wirksamkeit [1]: bessere antimykotische Wirksamkeit

Structure (SMILES): Cc1ccc(C(O)(Cn2cncn2)c2csc(C)n2)cc1 (stereo not drawn) [Verbindung 57]
- Wirkung (Candida; [2]): bessere Wirkung

Structure (SMILES): OC(Cn1cncn1)(c1ccc(Cl)cc1)c1csc(-c2ccccc2)n1 (stereo not drawn) [Verbindung 59]
- antimykotische Wirksamkeit [1]: bessere antimykotische Wirksamkeit

Structure (SMILES): OC(Cn1ccnc1)(c1ccc(Cl)cc1)c1csc(-c2ccccc2)n1 (stereo not drawn) [Verbindung 62]
- antimykotische Wirksamkeit [1]: bessere antimykotische Wirksamkeit
